Data as given in patent US6632816B1, “Aromatic derivatives as HIV aspartyl protease inhibitors” (Pharmacor Inc., priority 2002, dated 2003).

Target: HIV protease (Human immunodeficiency virus type 1 group M subtype B, UniProt P04585)
Assay: biochemical
From the text: Enzymatic Assay for Determining the Inhibition Constant (Ki) of Synthetic Compounds Targeting the HIV Protease
This is a fluorometric assay based on the cleavage by protease of a substrate carrying a donor group (EDANS) and an acceptor group (DABCYL) on each side of the cleavage site, interacting together through fluorescence resonance energy transfer (FRET) as described by Matayoshi et al. (Science 247:954-954, 1990).
After calculation of Vo and Vi, the inhibition constant (Ki) of the compound is determined using the equation of Henderson: [formula]
where Vo=the enzyme's initial velocity
Vi=the enzyme velocity in the presence of the inhibitory compound,
[I]=inhibitor concentration, [S]=substrate concentration,
Km=Michaelis-Menten constant and Kiapp=apparent Ki
Graphs are traced and the Ki determined using GraphPad Prism software v.

| SMILES | Ki [nM] |
| --- | --- |
| COc1ccc(CC(=O)N[C@@H](Cc2cccc3ccccc23)C(=O)NCCC[C@@H](CO)N(CC(C)C)S(=O)(=O)c2ccc(N)cc2)cc1 [Example 5, (2S,4S)-N-{4-[(4-Amino-benzenesulfonyl)-isobutyl-amino]-5-hydroxy-pentyl}-2-[2-(4-methoxy-phenyl)-acetylamino]-3-naphthalen-1-yl-propionamide] | 11 |
| COC(=O)N[C@@H](Cc1ccccc1-c1ccc(OC)cc1)C(=O)NCCC[C@@H](CO)N(CC(C)C)S(=O)(=O)c1ccc(N)cc1 [Example 6, (1S,4S)-[1-{4-[(4-Amino-benzenesulfonyl)-isobutyl-amino]-5-hydroxy-pentylcarbamoyl}-2-(4′-methoxy-biphenyl-2-yl)-ethyl]-carbamic Acid Methyl Ester] | 13 |
| CC(C)CN([C@H](CO)CCCNC(=O)[C@H](Cc1cccc2ccccc12)NC(=O)OCC(F)(F)F)S(=O)(=O)c1ccc(N)cc1 [Example 7, (1S,4S)-(1-{4-[(4-Amino-benzenesulfonyl)-isobutyl-amino]-5-hydroxy-pentylcarbamoyl}-2-naphthalen-1-yl-ethyl)-carbamic Acid 2,2,2-Trifluoro-ethyl Ester] | 4 |
| CC(C)CN([C@H](CO)CCCNC(=O)[C@@H](N)Cc1cccc2ccccc12)S(=O)(=O)c1ccc(N)cc1 [Example 8, (2S,4S)-2-Amino-N-{4-[(4-amino-benzenesulfonyl)-isobutyl-amino]-5-hydroxy-pentyl}-3-naphthalen-1-yl-propionamide] | 1.6 |
| CC(C)CN([C@H](CO)CCCNC(=O)[C@H](Cc1cccc2ccccc12)NC(=O)C1CCCCC1)S(=O)(=O)c1ccc(N)cc1 [Example 13, (1S,4S)-Cyclohexanecarboxylic Acid (1-{4-[(4-Amino-benzenesulfonyl)-isobutyl-amino]-5-hydroxy-pentylcarbamoyl}-2-naphthalen-1-yl-ethyl)-amide] | 2.3 |
| CC(C)CN([C@H](CO)CCCNC(=O)[C@@H](N)Cc1ccccc1-c1ccccc1)S(=O)(=O)c1ccc(N)cc1 [Example 14, (2S,4S)-2-Amino-N-{4-[(4-amino-benzenesulfonyl)-isobutyl-amino]-5-hydroxy-pentyl}-3-biphenyl-2-yl-propionamide] | 7.1 |
| COC(=O)CN[C@@H](Cc1cccc2ccccc12)C(=O)NCCC[C@@H](CO)N(CC(C)C)S(=O)(=O)c1ccc(N)cc1 [Example 15, (1S,4S)-(1-{4-[(4-Amino-benzenesulfonyl)-isobutyl-amino]-5-hydroxy-pentylcarbamoyl}-2-naphthalen-1-yl-ethylamino)-acetic Acid Methyl Ester] | 4.2 |
| CC(C)CN([C@H](CO)CCCNC(=O)[C@@H](NC(=O)OC(C)(C)C)C(c1ccccc1)c1ccccc1)S(=O)(=O)c1ccc(N)cc1 [Example 16, (1S,4S)-(1-{4-[(4-Amino-benzenesulfonyl)-isobutyl-amino]-5-hydroxy-pentylcarbamoyl}-2,2-diphenyl-ethyl)-carbamic Acid tert-Butyl Ester] | 9.3 |
| COCCOC(=O)N[C@@H](Cc1cccc2ccccc12)C(=O)NCCC[C@@H](CO)N(CC(C)C)S(=O)(=O)c1ccc(N)cc1 [Example 17, (1S,4S)-(1-{4-[(4-Amino-benzenesulfonyl)-isobutyl-amino]-5-hydroxy-pentylcarbamoyl}-2-naphthalen-1-yl-ethyl)-carbamic Acid 2-Methoxy-ethyl Ester] | 3.7 |
| CCOC(=O)N[C@@H](Cc1cccc2ccccc12)C(=O)NCCC[C@@H](CO)N(CC(C)C)S(=O)(=O)c1ccc(N)cc1 [Example 18, (1S,4S)-(1-{4-[(4-Amino-benzenesulfonyl)-isobutyl-amino]-5-hydroxy-pentylcarbamoyl}-2-naphthalen-1-yl-ethyl)-carbamic Acid Ethyl Ester] | 3.9 |
| COCC(=O)N[C@@H](Cc1cccc2ccccc12)C(=O)NCCC[C@@H](CO)N(CC(C)C)S(=O)(=O)c1ccc(N)cc1 [Example 19, (2S,4S)-N-{4-[(4-Amino-benzenesulfonyl)-isobutyl-amino]-5-hydroxy-pentyl}-2-(2-methoxy-acetylamino)-3-naphthalen-1-yl-propionamide] | 2.6 |
| CCCCN[C@@H](Cc1cccc2ccccc12)C(=O)NCCC[C@@H](CO)N(CC(C)C)S(=O)(=O)c1ccc(N)cc1 [Example 20, (2S,4S)-N-{4-[(4-Amino-benzenesulfonyl)-isobutyl-amino]-5-hydroxy-pentyl}-2-butylamino-3-naphthalen-1-yl-propionamide] | 4.4 |
| CC(=O)OCCN[C@@H](Cc1cccc2ccccc12)C(=O)NCCC[C@@H](CO)N(CC(C)C)S(=O)(=O)c1ccc(N)cc1 [Example 21, (1S,4S)-Acetic Acid 2-(1-{4-[(4-Amino-benzenesulfonyl)-isobutyl-amino]-5-hydroxy-pentylcarbamoyl}-2-naphthalen-1-yl-ethylamino)-ethyl Ester] | 3.9 |
| CCCN[C@@H](Cc1cccc2ccccc12)C(=O)NCCC[C@@H](CO)N(CC(C)C)S(=O)(=O)c1ccc(N)cc1 [Example 22, (2S,4S)-N-{4-[(4-Amino-benzenesulfonyl)-isobutyl-amino]-5-hydroxy-pentyl}-3-naphthalen-1-yl-2-propylamino-propionamide] | 2.5 |
| CC(C)CN([C@H](CO)CCCNC(=O)[C@H](Cc1cccc2ccccc12)NC(=O)C1CCCC1)S(=O)(=O)c1ccc(N)cc1 [Example 23, (1S,4S)-Cyclopentanecarboxylic Acid (1-{4-[(4-Amino-benzenesulfonyl)-isobutyl-amino]-5-hydroxy-pentylcarbamoyl}-2-naphthalen-1-yl-ethyl)-amide] | 2 |
| CC(C)CN([C@H](CO)CCCNC(=O)[C@@H](N)C(c1ccccc1)c1ccccc1)S(=O)(=O)c1ccc(N)cc1 [Example 24, (2S,4S)-2-Amino-N-{4-[(4-amino-benzenesulfonyl)-isobutyl-amino]-5-hydroxy-pentyl}-3,3-diphenyl-propionamide] | 7.5 |
| CC(C)CN[C@@H](Cc1cccc2ccccc12)C(=O)NCCC[C@@H](CO)N(CC(C)C)S(=O)(=O)c1ccc(N)cc1 [Example 25, (2S,4S)-N-{4-[(4-Amino-benzenesulfonyl)-isobutyl-amino]-5-hydroxy-pentyl}-2-isobutylamino-3-naphthalen-1-yl-propionamide] | 3.7 |
| CCN[C@@H](Cc1cccc2ccccc12)C(=O)NCCC[C@@H](CO)N(CC(C)C)S(=O)(=O)c1ccc(N)cc1 [Example 26, (2S,4S)-N-{4-[(4-Amino-benzenesulfonyl)-isobutyl-amino]-5-hydroxy-pentyl}-2-ethylamino-3-naphthalen-1-yl-propionamide] | 3 |
| CC(C)CN([C@H](CO)CCCNC(=O)[C@H](Cc1cccc2ccccc12)NCC(=O)O)S(=O)(=O)c1ccc(N)cc1 [Example 27, (1S,4S)-(1-{4-[(4-Amino-benzenesulfonyl)-isobutyl-amino]-5-hydroxy-pentylcarbamoyl}-2-naphthalen-1-yl-ethylamino)-acetic Acid] | 2.5 |
| COC(=O)N[C@@H](Cc1cccc2ccccc12)C(=O)NCCCC[C@@H](CO)N(CC(C)C)S(=O)(=O)c1ccc(N)cc1 [Example 28, (1S,5S)-(1-{5-[(4-Amino-benzenesulfonyl)-isobutyl-amino]-6-hydroxy-hexylcarbamoyl}-2-naphthalen-1-yl-ethyl)-carbamic Acid Methyl Ester] | 1.2 |
| COC(=O)N[C@@H](Cc1ccc2ccccc2c1)C(=O)NCCCC[C@@H](CO)N(CC(C)C)S(=O)(=O)c1ccc(N)cc1 [Example 29, (1S,5S)-(1-{5-[(4-Amino-benzenesulfonyl)-isobutyl-amino]-6-hydroxy-hexylcarbamoyl}-2-naphthalen-2-yl-ethyl)-carbamic Acid Methyl Ester] | 1.2 |
| CC(C)CN([C@H](CO)CCCCNC(=O)[C@H](Cc1ccc2ccccc2c1)NC(=O)C1CCCCC1)S(=O)(=O)c1ccc(N)cc1 [Example 42, (1S,5S)-Cyclohexanecarboxylic Acid (1-{5-[(4-Amino-benzenesulfonyl)-isobutyl-amino]-6-hydroxy-hexylcarbamoyl}-2-naphthalen-2-yl-ethyl)-amide] | 1.2 |
| CC(C)CN([C@H](CO)CCCCNC(=O)[C@@H](N)Cc1ccc2ccccc2c1)S(=O)(=O)c1ccc(N)cc1 [Example 49, (2S,5S)-2-Amino-N-{5-[(4-amino-benzenesulfonyl)-isobutyl-amino]-6-hydroxy-hexyl}-3-naphthalen-2-yl-propionamide] | 1.3 |
| COC(=O)N[C@@H](Cc1ccccc1-c1cccc(F)c1)C(=O)NCCCC[C@@H](CO)N(CC(C)C)S(=O)(=O)c1ccc(N)c(Cl)c1 [Example 57, (1S,5S)-[1-{5-[(4-Amino-3-chloro-benzenesulfonyl)-isobutyl-amino]-6-hydroxy-hexylcarbamoyl}-2-(3′-fluoro-biphenyl-2-yl)-ethyl]-carbamic Acid Methyl Ester] | 1.7 |
| CC(C)CN([C@H](CO)CCCCNC(=O)[C@H](Cc1ccc(-c2ccccc2)cc1)NC(=O)OC(C)(C)C)S(=O)(=O)c1ccc(N)cc1 [Example 59, (1S,5S)-(1-{5-[(4-Amino-benzenesulfonyl)-isobutyl-amino]-6-hydroxy-hexylcarbamoyl}-2-biphenyl-4-yl-ethyl)-carbamic Acid tert-Butyl Ester] | 6 |
| CC(C)CN([C@H](CO)CCCCNC(=O)[C@H](Cc1ccc2ccccc2c1)NC(=O)C1CCCC1)S(=O)(=O)c1ccc(N)cc1 [Example 60, (1S,5S)-Cyclopentanecarboxylic Acid (1-{5-[(4-Amino-benzenesulfonyl)-isobutyl-amino]-6-hydroxy-hexylcarbamoyl}-2-naphthalen-2-yl-ethyl)-amide] | 1.9 |
| CC(C)CN[C@@H](Cc1ccc2ccccc2c1)C(=O)NCCCC[C@@H](CO)N(CC(C)C)S(=O)(=O)c1ccc(N)cc1 [Example 63, (2S,5S)-N-{5-[(4-Amino-benzenesulfonyl)-isobutyl-amino]-6-hydroxy-hexyl}-2-isobutylamino-3-naphthalen-2-yl-propionamide] | 3.9 |
| CCCN[C@@H](Cc1ccc2ccccc2c1)C(=O)NCCCC[C@@H](CO)N(CC(C)C)S(=O)(=O)c1ccc(N)cc1 [Example 64, (2S,5S)-N-{5-[(4-Amino-benzenesulfonyl)-isobutyl-amino]-6-hydroxy-hexyl}-3-naphthalen-2-yl-2-propylamino-propionamide] | 4.6 |
